Columns and labels:
[1] = target: T1, Solute carrier family 22 member 6 (Homo sapiens, UniProt Q4U2R8); test: Inhibition of OAT1 (unknown origin) expressed in HEK293 cells assessed as inhibition of 6-CFL uptake preincubated for 30 mins followed by incubation with 6-CFL and measured after 15 mins by fluorescence based analysis; type: toxicity, cell-based
T1 sequence (Q4U2R8 whole entry): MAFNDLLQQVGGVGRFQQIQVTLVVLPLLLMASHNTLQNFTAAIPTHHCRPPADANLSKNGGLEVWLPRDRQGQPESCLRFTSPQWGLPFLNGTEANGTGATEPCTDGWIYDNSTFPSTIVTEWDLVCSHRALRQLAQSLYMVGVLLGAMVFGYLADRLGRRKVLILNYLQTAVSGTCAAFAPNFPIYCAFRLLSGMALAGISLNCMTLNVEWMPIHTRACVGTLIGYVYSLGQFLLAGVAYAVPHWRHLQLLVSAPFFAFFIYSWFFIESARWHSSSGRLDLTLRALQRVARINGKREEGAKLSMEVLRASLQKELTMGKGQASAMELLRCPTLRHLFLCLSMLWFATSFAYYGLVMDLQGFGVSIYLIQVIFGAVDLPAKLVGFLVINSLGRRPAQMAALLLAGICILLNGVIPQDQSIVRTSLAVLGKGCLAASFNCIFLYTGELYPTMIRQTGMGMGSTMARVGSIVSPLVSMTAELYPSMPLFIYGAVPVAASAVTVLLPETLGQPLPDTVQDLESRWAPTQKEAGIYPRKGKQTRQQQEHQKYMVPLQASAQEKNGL

Mus musculus [2] = test: Anti-hyperuricemic activity against xanthine and potassium oxonate-induced acute hyperuricemia Kunming mouse model assessed as serum uric acid concentration at 10 mg/kg, po measured after 3 hrs (reference value: 846.22 uM); type: functional
[3] = target: T2, Solute carrier family 22 member 12 (Homo sapiens, UniProt Q96S37); test: Inhibition of URAT1 (unknown origin)-mediated 14C-uric acid uptake expressed in HEK293 cells using 14C-uric acid as substrate preincubated for 30 mins followed by substrate addition and measured after 15 mins by liquid scintillation counting analysis; type: cell-based
T2 sequence (Q96S37 whole entry): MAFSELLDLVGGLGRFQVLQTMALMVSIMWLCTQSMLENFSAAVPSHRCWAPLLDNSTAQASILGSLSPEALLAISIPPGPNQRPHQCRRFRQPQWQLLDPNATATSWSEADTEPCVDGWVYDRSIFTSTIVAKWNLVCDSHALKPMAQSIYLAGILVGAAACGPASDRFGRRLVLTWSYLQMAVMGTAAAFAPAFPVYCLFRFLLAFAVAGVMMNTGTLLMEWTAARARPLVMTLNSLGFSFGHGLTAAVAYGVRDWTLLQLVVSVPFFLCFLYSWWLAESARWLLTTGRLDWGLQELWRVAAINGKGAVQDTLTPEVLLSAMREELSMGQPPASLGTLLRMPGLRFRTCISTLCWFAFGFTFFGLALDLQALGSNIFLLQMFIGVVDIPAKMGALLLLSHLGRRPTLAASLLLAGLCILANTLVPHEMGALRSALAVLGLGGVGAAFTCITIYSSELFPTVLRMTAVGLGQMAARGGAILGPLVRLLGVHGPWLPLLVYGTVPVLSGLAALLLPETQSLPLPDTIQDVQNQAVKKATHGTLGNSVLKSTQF

[4] = Cmax in Sprague-Dawley rat at 5 mg/kg, iv measured upto 36 hrs by LC-MS/MS analysis; type: ADME, organism-based; set-up: time < 36 hrs, dose 5 mg/kg, route iv; conditions: in vivo
[5] = Inhibition of URAT1 I481M mutant (unknown origin)-mediated 14C-uric acid uptake expressed in HEK293 cells using 14C-uric acid as substrate preincubated for 30 mins followed by substrate addition and measured after 15 mins by liquid scintillation counting analysis; type: cell-based; conditions: Homo sapiens
[6] = Tmax in Sprague-Dawley rat at 5 mg/kg, po measured upto 36 hrs by LC-MS/MS analysis; type: ADME, organism-based; conditions: in vivo
[7] = target: T3, Broad substrate specificity ATP-binding cassette transporter ABCG2 (Homo sapiens, UniProt Q9UNQ0); test: Inhibition of ABCG2 (unknown origin) expressed in HEK293 cells membrane vesicles assessed as inhibition of ATP-induced 14C-uric acid uptake preincubated for 15 mins followed by incubation with ATP and substrate for 5 mins by liquid scintillation counting analysis; type: toxicity, cell membranes, Membrane vesicle
T3 sequence (Q9UNQ0 whole entry): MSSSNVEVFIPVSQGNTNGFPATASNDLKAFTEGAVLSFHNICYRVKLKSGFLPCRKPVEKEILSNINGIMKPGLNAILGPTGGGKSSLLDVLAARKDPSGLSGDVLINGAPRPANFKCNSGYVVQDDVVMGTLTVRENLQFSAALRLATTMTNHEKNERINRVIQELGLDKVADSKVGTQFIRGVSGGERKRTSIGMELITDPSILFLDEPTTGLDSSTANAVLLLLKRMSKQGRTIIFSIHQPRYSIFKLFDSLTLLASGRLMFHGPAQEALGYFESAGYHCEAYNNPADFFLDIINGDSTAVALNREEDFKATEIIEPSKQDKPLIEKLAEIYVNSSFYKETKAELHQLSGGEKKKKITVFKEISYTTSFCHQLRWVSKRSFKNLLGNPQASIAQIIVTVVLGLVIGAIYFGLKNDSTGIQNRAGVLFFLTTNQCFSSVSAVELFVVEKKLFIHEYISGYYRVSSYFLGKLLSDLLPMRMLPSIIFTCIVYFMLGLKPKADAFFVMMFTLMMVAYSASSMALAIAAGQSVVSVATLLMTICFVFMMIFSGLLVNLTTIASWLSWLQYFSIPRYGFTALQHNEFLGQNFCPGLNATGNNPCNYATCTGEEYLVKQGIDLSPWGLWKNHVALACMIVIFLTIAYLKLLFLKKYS

Mus musculus [8] = test: Anti-hyperuricemic activity against xanthine and potassium oxonate-induced acute hyperuricemia Kunming mouse model assessed as increase in urine uric acid concentration at 10 mg/kg, po measured for 24 hrs; type: functional
[9] = Tmax in Sprague-Dawley rat at 5 mg/kg, iv measured upto 36 hrs by LC-MS/MS analysis; type: ADME, organism-based; conditions: in vivo
[10] = Cmax in Sprague-Dawley rat at 5 mg/kg, po measured upto 36 hrs by LC-MS/MS analysis; type: ADME, organism-based; set-up: time < 36 hrs, dose 5 mg/kg, route po; conditions: in vivo
[11] = Half life in Sprague-Dawley rat at 5 mg/kg, po measured upto 36 hrs by LC-MS/MS analysis; type: ADME, organism-based; conditions: in vivo
[12] = Half life in Sprague-Dawley rat at 5 mg/kg, iv measured upto 36 hrs by LC-MS/MS analysis; type: ADME, organism-based; conditions: in vivo
[13] = AUC (0 to infinity) in Sprague-Dawley rat at 5 mg/kg, po by LC-MS/MS analysis; type: ADME, organism-based; set-up: time infinity, dose 5 mg/kg, route po; conditions: in vivo
[14] = AUC (0 to infinity) in Sprague-Dawley rat at 5 mg/kg, iv by LC-MS/MS analysis; type: ADME, organism-based; set-up: time infinity, dose 5 mg/kg, route iv; conditions: in vivo
[15] = MRT (0 to infinity) in Sprague-Dawley rat at 5 mg/kg, po by LC-MS/MS analysis; type: ADME, organism-based; conditions: in vivo
[16] = MRT (0 to infinity) in Sprague-Dawley rat at 5 mg/kg, iv by LC-MS/MS analysis; type: ADME, organism-based; conditions: in vivo
[17] = Oral bioavailability in Sprague-Dawley rat at 5 mg/kg measured upto 36 hrs by LC-MS/MS analysis; type: ADME, organism-based; conditions: in vivo
[18] = Cytotoxicity against human HK-2 cells assessed as reduction in cell viability incubated for 24 hrs by MTT assay; type: toxicity, cell-based
[19] = Cytotoxicity against human HK-2 cells assessed as reduction in cell viability incubated for 48 hrs by MTT assay; type: toxicity, cell-based
[20] = Inhibition of URAT1 R487K mutant (unknown origin)-mediated 14C-uric acid uptake expressed in HEK293 cells using 14C-uric acid as substrate preincubated for 30 mins followed by substrate addition and measured after 15 mins by liquid scintillation counting analysis; type: cell-based; conditions: Homo sapiens
[21] = Inhibition of URAT1 R477K mutant (unknown origin)-mediated 14C-uric acid uptake expressed in HEK293 cells using 14C-uric acid as substrate preincubated for 30 mins followed by substrate addition and measured after 15 mins by liquid scintillation counting analysis; type: cell-based; conditions: Homo sapiens
[22] = Inhibition of URAT1 F365Y mutant (unknown origin)-mediated 14C-uric acid uptake expressed in HEK293 cells using 14C-uric acid as substrate preincubated for 30 mins followed by substrate addition and measured after 15 mins by liquid scintillation counting analysis; type: cell-based; conditions: Homo sapiens
[23] = Inhibition of URAT1 F358Y mutant (unknown origin)-mediated 14C-uric acid uptake expressed in HEK293 cells using 14C-uric acid as substrate preincubated for 30 mins followed by substrate addition and measured after 15 mins by liquid scintillation counting analysis; type: cell-based; conditions: Homo sapiens
[24] = Inhibition of URAT1 F241Y mutant (unknown origin)-mediated 14C-uric acid uptake expressed in HEK293 cells using 14C-uric acid as substrate preincubated for 30 mins followed by substrate addition and measured after 15 mins by liquid scintillation counting analysis; type: cell-based; conditions: Homo sapiens
[25] = Inhibition of URAT1 S35N mutant (unknown origin)-mediated 14C-uric acid uptake expressed in HEK293 cells using 14C-uric acid as substrate preincubated for 30 mins followed by substrate addition and measured after 15 mins by liquid scintillation counting analysis; type: cell-based; conditions: Homo sapiens

Q: With `CC(C)(Sc1ccncc1-c1ccc(C#N)c2ccccc12)C(=O)[O-].[Na+]` as the compound, how does the IC50 [1] read?
A: The IC50 was 12.7 µM.

Q: And the Activity (Mus musculus [2])?
A: The Activity was 625.24 µM.

Q: What about the IC50 [3] of the same compound?
A: The IC50 was 0.17 µM.

Q: What about the Cmax [4] of the same compound?
A: The Cmax was 13400 ng/mL.

Q: And the IC50 [5]?
A: The IC50 was 0.94 µM.

Q: What about the Tmax [6] of the same compound?
A: Its Tmax is 0.46 h.

Q: And the IC50 [7]?
A: The IC50 was 18.7 µM.

Q: And the Activity (Mus musculus [8])?
A: The Activity was 2371.02 µM.

Q: And the Tmax [9]?
A: The Tmax was 5.4 min.

Q: And the Cmax [10]?
A: The Cmax was 7210 ng/mL.

Q: What about the half-life [11] of the same compound?
A: Its half-life is 4.01 h.

Q: And the half-life [12]?
A: The half-life was 3.49 h.

Q: And the AUC(0-inf) [13]?
A: The AUC(0-inf) was 4130 ng·h/mL.

Q: And the AUC(0-inf) [14]?
A: The AUC(0-inf) was 19700 ng·h/mL.

Q: And the MRT inf [15]?
A: Its MRT inf is 4.05 h.

Q: And the MRT inf [16]?
A: The MRT inf was 3.46 h.

Q: And the bioavailability [17]?
A: The bioavailability was 21.5%.

Q: And the IC50 at 24 h [18]?
A: Its IC50 at 24 h is 197 µM.

Q: And the IC50 at 48 h [19]?
A: Its IC50 at 48 h is 109 µM.

Q: What about the IC50 [20] of the same compound?
A: The IC50 was 0.11 µM.

Q: And the IC50 [21]?
A: The IC50 was 1.24 µM.

Q: What about the IC50 [22] of the same compound?
A: Its IC50 is 5.01 µM.

Q: And the IC50 [23]?
A: The IC50 was 0.24 µM.

Q: And the IC50 [24]?
A: The IC50 was 2.14 µM.

Q: And the IC50 [25]?
A: The IC50 was 4.21 µM.

Source: ChEMBL document CHEMBL5154691, “Discovery of novel verinurad analogs as dual inhibitors of URAT1 and GLUT9 with improved Druggability for the treatment of hyperuricemia” (Eur J Med Chem, 2022)
